Test results from article PMC7753086 (Computational and Structural Biotechnology Journal, 2020).
Values joined by “and” are separate entries in the source; they are usually repeats but may differ in a detail not shown here. Equal entries are not always repeated. “Also recorded” adds a separate entry of the source. Where two headings read alike, the source gives them in different places.

What was measured:
[1] = molecular target: mushroom tyrosinase (Agaricus bisporus, UniProt C7FF04); assay: biochemical; type: biochemical; settings: for Tyrosinase inhibition (%): 25 μM, L-tyrosine as substrate, NI: no inhibition, means ± SEMs, 25 µM; for inhibitory potency relative to kojic acid: from IC50 values
Sequence of mushroom tyrosinase (Agaricus bisporus, UniProt C7FF04) (C7FF04 1-392): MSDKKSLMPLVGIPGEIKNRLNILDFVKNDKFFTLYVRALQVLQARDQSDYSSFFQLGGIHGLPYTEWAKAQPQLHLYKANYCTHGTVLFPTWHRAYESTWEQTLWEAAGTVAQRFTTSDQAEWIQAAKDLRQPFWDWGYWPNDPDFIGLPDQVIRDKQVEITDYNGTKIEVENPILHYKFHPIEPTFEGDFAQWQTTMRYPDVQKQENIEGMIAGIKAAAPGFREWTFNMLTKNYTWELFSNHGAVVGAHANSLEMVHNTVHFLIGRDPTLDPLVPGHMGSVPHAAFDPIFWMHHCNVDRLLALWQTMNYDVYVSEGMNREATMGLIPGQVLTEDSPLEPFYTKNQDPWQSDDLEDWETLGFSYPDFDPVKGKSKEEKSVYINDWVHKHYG

[2] = test system: B16F10 melanoma cells; assay: Cell viability assay: EZ-cytox assay; type: cell-based, murine; settings: up to 20 µM, 24 h
[3] = test system: cellular tyrosinase in B16F10 melanoma cells; type: cell-based, murine; settings: for cellular tyrosinase activity: 5, 10, 20 μM, α-MSH 1 μM and IBMX 200 µM, 48 h
[4] = test system: B16F10 melanoma cells; assay: Melanin content assay in α-MSH and IBMX co-stimulated B16F10 cells; type: cell-based, murine; settings: for melanin contents: 5, 10, 20 μM, α-MSH and IBMX, 48 h
[5] = test system: mushroom tyrosinase; assay: Kinetic studies of tyrosinase inhibition; type: biochemical; settings: for mode of tyrosinase inhibition: Lineweaver-Burk plots, L-tyrosine as substrate
[6] = after 5 days at 20 °C; cited from earlier work

SMILES | IC50 [1] [µM] | Tyrosinase inhibition (%) [1] [%] | inhibitory potency relative to kojic acid [1] | Ki ([5]; inhibitor conc. 5.0 μM) [µM] | Vmax ([5]; inhibitor conc. 5.0 μM) [mM/min] | Ki ([5]; inhibitor conc. 10.0 μM) [µM] | Vmax ([5]; inhibitor conc. 10.0 μM) [mM/min] | Vmax ([5]; regardless of concentration) [mM/min] | cytotoxic effect (cell viability) [2] | cellular tyrosinase activity [3] | cellular tyrosinase inhibition compared with kojic acid at 20 μM ([3]; compound at 10 μM) | melanin contents [4] | mode of tyrosinase inhibition [5] | other results
O=C1/C(=C/c2ccc(O)c(O)c2)OC(=S)N1c1ccccc1 [Compound 1b, (Z)-5-(3,4-Dihydroxybenzylidene)-3-phenyl-2-thioxooxazolidin-4-one] | 53.38 ± 0.39 |  |  |  |  |  |  |  |  |  |  |  |  | 
O=C1/C(=C/c2ccc(O)cc2O)OC(=S)N1c1ccccc1 [Compound 1c, (Z)-5-(2,4-Dihydroxybenzylidene)-3-phenyl-2-thioxooxazolidin-4-one] | 4.7 ± 0.4 | 78.05 ± 4.03 | 5 fold and 4.9 fold | 2.51 | 0.04 | 2.19 | 0.04 | 0.04 | did not have a significant cytotoxic effect | significantly and concentration-dependently decreased cellular tyrosinase activity | more potent than kojic acid; also recorded: inhibited cellular tyrosinase more than kojic acid | significantly and potently decreased melanin contents | competitively inhibited; also recorded: competitive inhibitors | inhibition of melanin production compared with kojic acid at 20 µM ([4]; compound at 10 μM): inhibited melanin production more than kojic acid; Ki ([5]; inhibitor conc. 2.5 μM): 3.02 µM; Vmax ([5]; inhibitor conc. 2.5 μM): 0.04 mM/min
OC[C@H]1O[C@@H](Oc2ccc(O)cc2)[C@H](O)[C@@H](O)[C@@H]1O [Arbutin] |  |  |  |  |  |  |  |  |  |  |  |  |  | decomposition [6]: 10%

Continued, in another order:

IC50 [1] [µM] | Tyrosinase inhibition (%) [1] [%] | inhibitory potency relative to kojic acid [1] | Ki ([5]; inhibitor conc. 5.0 μM) [µM] | Vmax ([5]; inhibitor conc. 5.0 μM) [mM/min] | Ki ([5]; inhibitor conc. 10.0 μM) [µM] | Vmax ([5]; inhibitor conc. 10.0 μM) [mM/min] | Vmax ([5]; regardless of concentration) [mM/min] | SMILES | cytotoxic effect (cell viability) [2] | cellular tyrosinase activity [3] | cellular tyrosinase inhibition compared with kojic acid at 20 μM ([3]; compound at 10 μM) | melanin contents [4] | mode of tyrosinase inhibition [5] | other results
11.2 ± 0.54 | 71.12 ± 0.71 | 2 fold and 2.1 fold | 5.85 | 0.027 | 4.51 | 0.027 | 0.027 | O=C1/C(=C/c2ccccc2O)OC(=S)N1c1ccccc1 [Compound 1j, (Z)-5-(2-Hydroxybenzylidene)-3-phenyl-2-thioxooxazolidin-4-one] | did not have a significant cytotoxic effect | significantly and concentration-dependently decreased cellular tyrosinase activity | more potent than kojic acid | significantly and potently decreased melanin contents | competitively inhibited; also recorded: competitive inhibitors | cellular tyrosinase inhibition compared with kojic acid at 20 μM ([3]; compound at 5 μM): inhibited cellular tyrosinase more than kojic acid; inhibition of melanin production compared with kojic acid at 20 µM ([4]; compound at 5 μM): inhibited melanin production more than kojic acid; Ki ([5]; inhibitor conc. 20.0 μM): 3.22 µM; Vmax ([5]; inhibitor conc. 20.0 μM): 0.027 mM/min
 | 24.96 ± 4.72 |  |  |  |  |  |  | O=C1/C(=C/c2ccc(O)c(Br)c2)OC(=S)N1c1ccccc1 [Compound 1n, (Z)-5-(3-Bromo-4-hydroxybenzylidene)-3-phenyl-2-thioxooxazolidin-4-one] |  |  |  |  |  | 
